Measurements reported in the supplement of paper PMC10307832.

Assays:
Assay in all cases: relative viability (nuclei count vs DMSO), 5 days (fraction); higher = more cells survive
Dinaciclib + Palbociclib = compound: CCc1cnn2c(NCc3ccc[n+]([O-])c3)cc(N3CCCC[C@H]3CCO)nc12 [Dinaciclib] + CC(=O)c1c(C)c2cnc(Nc3ccc(N4CCNCC4)cn3)nc2n(C2CCCC2)c1=O [Palbociclib] (partner 0.5 µM)
How it was run: (§1)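 Nuclei were stained with Hoechst during a one-step fixation (final 0.05% Triton X-100, 1% formaldehyde, 1 ug/ml Hoechst) carried out 5 days after dosing, then counted on 4× images. The cells, lung cancer lines in 1536-well plates, had been dosed by pin tool the day after seeding with one drug alone or a fixed anchor-drug dose plus five library-drug doses (not always all listed) in √10 steps. Relative viability is the nuclei count in treated wells divided by that in vehicle wells, and each value is the median of duplicate plates.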

Dinaciclib + Bortezomib = compound: CCc1cnn2c(NCc3ccc[n+]([O-])c3)cc(N3CCCC[C@H]3CCO)nc12 [Dinaciclib] + CC(C)C[C@H](NC(=O)[C@H](Cc1ccccc1)NC(=O)c1cnccn1)B(O)O [Bortezomib] (partner 0.002 µM)
How it was run: as §1

Dinaciclib + Foretinib = compound: CCc1cnn2c(NCc3ccc[n+]([O-])c3)cc(N3CCCC[C@H]3CCO)nc12 [Dinaciclib] + COc1cc2c(Oc3ccc(NC(=O)C4(C(=O)Nc5ccc(F)cc5)CC4)cc3F)ccnc2cc1OCCCN1CCOCC1 [Foretinib] (partner 0.25 µM)
How it was run: as §1

Dinaciclib + Pemetrexed = compound: CCc1cnn2c(NCc3ccc[n+]([O-])c3)cc(N3CCCC[C@H]3CCO)nc12 [Dinaciclib] + Nc1nc2[nH]cc(CCc3ccc(C(=O)N[C@@H](CCC(=O)O)C(=O)O)cc3)c2c(=O)[nH]1 [Pemetrexed] (partner 0.2 µM)
How it was run: as §1

Dinaciclib + Decitabine = compound: CCc1cnn2c(NCc3ccc[n+]([O-])c3)cc(N3CCCC[C@H]3CCO)nc12 [Dinaciclib] + Nc1ncn([C@H]2C[C@H](O)[C@@H](CO)O2)c(=O)n1 [Decitabine] (partner 2 µM)
How it was run: as §1

| Cell Line | relative viability (Dinaciclib + Palbociclib; first compound 0.009487 µM) | relative viability (Dinaciclib + Palbociclib; first compound 0.03 µM) | relative viability (Dinaciclib + Palbociclib; first compound 0.09487 µM) | relative viability (Dinaciclib + Palbociclib; first compound 0.3 µM) | relative viability (Dinaciclib + Bortezomib; first compound 0.009487 µM) | relative viability (Dinaciclib + Bortezomib; first compound 0.03 µM) | relative viability (Dinaciclib + Bortezomib; first compound 0.09487 µM) | relative viability (Dinaciclib + Bortezomib; first compound 0.3 µM) | relative viability (Dinaciclib + Foretinib; first compound 0.009487 µM) | relative viability (Dinaciclib + Foretinib; first compound 0.03 µM) | relative viability (Dinaciclib + Foretinib; first compound 0.09487 µM) | relative viability (Dinaciclib + Foretinib; first compound 0.3 µM) | relative viability (Dinaciclib + Pemetrexed; first compound 0.009487 µM) | relative viability (Dinaciclib + Pemetrexed; first compound 0.03 µM) | relative viability (Dinaciclib + Pemetrexed; first compound 0.09487 µM) | relative viability (Dinaciclib + Pemetrexed; first compound 0.3 µM) | relative viability (Dinaciclib + Decitabine; first compound 0.009487 µM) | relative viability (Dinaciclib + Decitabine; first compound 0.03 µM) | relative viability (Dinaciclib + Decitabine; first compound 0.09487 µM) | relative viability (Dinaciclib + Decitabine; first compound 0.3 µM) |
| --- | --- | --- | --- | --- | --- | --- | --- | --- | --- | --- | --- | --- | --- | --- | --- | --- | --- | --- | --- | --- |
| LCLC-97TM1 | 0.18 | 0.0731 | 0.0753 | 0.0729 | 0.0824 | 0.0484 | 0.0476 | 0.0667 | 0.705 | 0.14 | 0.132 | 0.107 | 0.152 | 0.0671 | 0.0619 | 0.062 | 0.167 | 0.0798 | 0.0518 | 0.0627 |
| LCLC-103H | 0.402 | 0.441 | 0.208 | 0.192 | 1.04 | 0.998 | 0.451 | 0.108 | 0.834 | 0.623 | 0.0915 | 0.094 | 0.465 | 0.566 | 0.223 | 0.217 | 0.754 | 0.648 | 0.297 | 0.242 |
| LOU-NH91 | 0.508 | 0.307 | 0.268 | 0.273 | 0.4 | 0.345 | 0.287 | 0.281 | 0.971 | 0.406 | 0.214 | 0.216 | 0.443 | 0.276 | 0.256 | 0.234 | 0.642 | 0.434 | 0.269 | 0.271 |
| LU99A | 0.383 | 0.124 | 0.138 | 0.106 | 0.645 | 0.134 | 0.135 | 0.122 | 0.545 | 0.183 | 0.128 | 0.154 | 0.205 | 0.16 | 0.132 | 0.137 | 0.793 | 0.145 | 0.13 | 0.149 |
| LXF-289 | 0.598 | 0.213 | 0.0821 | 0.108 | 1.04 | 0.193 | 0.0851 | 0.0696 | 1.03 | 0.706 | 0.0732 | 0.0742 | 0.815 | 0.254 | 0.0816 | 0.0773 | 0.356 | 0.293 | 0.109 | 0.0948 |
| NCI-H23 | 0.304 | 0.167 | 0.0992 | 0.103 | 0.637 | 0.185 | 0.0983 | 0.106 | 0.57 | 0.187 | 0.108 | 0.15 | 0.445 | 0.156 | 0.113 | 0.117 | 0.242 | 0.216 | 0.14 | 0.135 |
| NCI-H322M | 0.441 | 0.392 | 0.373 | 0.384 | 1.26 | 1.26 | 0.52 | 0.187 | 0.801 | 0.287 | 0.302 | 0.281 | 0.569 | 0.326 | 0.313 | 0.343 | 0.713 | 0.441 | 0.416 | 0.348 |
| NCI-H441 | 0.197 | 0.148 | 0.125 | 0.113 | 0.45 | 0.158 | 0.2 | 0.143 | 0.789 | 0.204 | 0.174 | 0.222 | 0.263 | 0.168 | 0.12 | 0.128 | 0.223 | 0.199 | 0.134 | 0.147 |
| NCI-H460 | 0.0704 | 0.0127 | 0.0174 | 0.0151 | 0.591 | 0.013 | 0.0102 | 0.0119 | 0.803 | 0.0417 | 0.0257 | 0.0233 | 0.0617 | 0.0567 | 0.0208 | 0.017 | 0.232 | 0.0239 | 0.0139 | 0.0224 |
| NCI-H520 | 0.232 | 0.142 | 0.134 | 0.126 | 0.23 | 0.105 | 0.103 | 0.14 | 0.573 | 0.126 | 0.136 | 0.151 | 0.483 | 0.123 | 0.139 | 0.127 | 0.47 | 0.131 | 0.155 | 0.168 |
| NCI-H647 | 0.18 | 0.111 | 0.0539 | 0.0401 | 0.208 | 0.0668 | 0.0726 | 0.0623 | 0.687 | 0.221 | 0.0703 | 0.0856 | 0.149 | 0.0819 | 0.0645 | 0.0608 | 0.296 | 0.131 | 0.0349 | 0.0773 |
| NCI-H650 | 0.374 | 0.171 | 0.128 | 0.101 | 0.295 | 0.132 | 0.129 | 0.123 | 1.02 | 0.182 | 0.165 | 0.142 | 0.877 | 0.305 | 0.115 | 0.139 | 0.308 | 0.204 | 0.118 | 0.124 |
| NCI-H661 | 0.431 | 0.188 | 0.14 | 0.153 | 0.774 | 0.155 | 0.167 | 0.186 | 0.851 | 0.213 | 0.202 | 0.199 | 0.798 | 0.365 | 0.214 | 0.151 | 0.472 | 0.181 | 0.158 | 0.196 |
| NCI-H838 | 0.224 | 0.143 | 0.0896 | 0.0812 | 0.231 | 0.104 | 0.0725 | 0.127 | 0.993 | 0.487 | 0.125 | 0.101 | 0.262 | 0.13 | 0.12 | 0.0879 | 0.337 | 0.162 | 0.131 | 0.138 |
| NCI-H1355 | 0.425 | 0.311 | 0.154 | 0.137 | 1.16 | 1.1 | 0.223 | 0.152 | 1.12 | 0.268 | 0.148 | 0.166 | 1.04 | 0.976 | 0.449 | 0.116 | 0.364 | 0.321 | 0.174 | 0.157 |
| NCI-H1437 | 0.245 | 0.203 | 0.117 | 0.119 | 0.376 | 0.205 | 0.0732 | 0.0751 | 1.06 | 0.564 | 0.184 | 0.15 | 0.343 | 0.149 | 0.158 | 0.12 | 0.405 | 0.194 | 0.182 | 0.197 |
| NCI-H1650 | 0.343 | 0.0912 | 0.115 | 0.0963 | 0.172 | 0.178 | 0.158 | 0.142 | 1.1 | 0.336 | 0.167 | 0.14 | 0.366 | 0.335 | 0.152 | 0.0974 | 0.472 | 0.258 | 0.135 | 0.12 |
| NCI-H1651 | 0.519 | 0.383 | 0.148 | 0.0571 | 0.96 | 0.763 | 0.25 | 0.0931 | 0.858 | 0.683 | 0.0694 | 0.0598 | 0.596 | 0.51 | 0.112 | 0.0533 | 0.705 | 0.391 | 0.105 | 0.0596 |
| NCI-H1666 | 0.672 | 0.442 | 0.6 | 0.541 | 0.528 | 0.19 | 0.164 | 0.18 | 0.832 | 0.318 | 0.38 | 0.328 | 0.933 | 0.399 | 0.504 | 0.491 | 0.831 | 0.487 | 0.326 | 0.333 |
| NCI-H1734 | 0.26 | 0.135 | 0.122 | 0.126 | 0.644 | 0.148 | 0.121 | 0.116 | 0.803 | 0.164 | 0.132 | 0.129 | 0.417 | 0.147 | 0.149 | 0.136 | 0.5 | 0.277 | 0.134 | 0.139 |
| NCI-H1755 | 0.423 | 0.316 | 0.223 | 0.238 | 0.889 | 0.884 | 0.171 | 0.17 | 0.917 | 0.516 | 0.198 | 0.196 | 0.397 | 0.272 | 0.204 | 0.261 | 0.754 | 0.733 | 0.261 | 0.239 |
| NCI-H1915 | 0.474 | 0.121 | 0.125 | 0.113 | 0.81 | 0.23 | 0.112 | 0.105 | 0.731 | 0.193 | 0.124 | 0.173 | 0.471 | 0.439 | 0.11 | 0.0872 | 0.253 | 0.24 | 0.131 | 0.12 |
| NCI-H1975 | 0.578 | 0.188 | 0.102 | 0.105 | 0.29 | 0.126 | 0.109 | 0.12 | 0.868 | 0.185 | 0.107 | 0.099 | 0.275 | 0.288 | 0.146 | 0.16 | 0.327 | 0.176 | 0.135 | 0.143 |
| NCI-H1993 | 0.602 | 0.36 | 0.506 | 0.433 | 1.18 | 0.551 |  | 0.61 | 0.922 | 0.584 | 0.65 | 0.544 | 0.592 | 0.452 | 0.484 | 0.427 | 0.702 | 0.462 | 0.445 | 0.406 |
| NCI-H2009 | 0.243 | 0.0729 | 0.0659 | 0.057 | 0.88 | 0.101 | 0.069 | 0.0948 | 1.3 | 0.144 | 0.103 | 0.0969 | 0.977 | 0.459 | 0.0817 | 0.0842 | 0.41 | 0.294 | 0.081 | 0.0958 |
| NCI-H2023 | 0.301 | 0.0599 | 0.0471 | 0.063 | 1 | 0.066 | 0.0634 | 0.0575 | 0.948 | 0.0806 | 0.0663 | 0.0474 | 0.165 | 0.0899 | 0.0697 | 0.0581 | 0.157 | 0.0607 | 0.0544 | 0.0524 |
